System: F2N1 Male Mice
Experiment: Metrazol Test (seizure susceptibility, tail vein infusion)
Type: in vivo, mouse
Conditions: for dose at death, Average ± Stdev / dose at first twitch, Average ± Stdev / dose at tonic extension, Average ± Stdev / dose at tonic/clonic seizure, Average ± Stdev: 5 mg/mL Metrazol infused through tail vein at 0.375 mL/min
Method: A metrazol administration test can be used to screen animals for varying susceptibilities to seizures or similar events. For example, a 5 mg/ml solution of metrazol can be infused through the tail vein of a mouse at a rate of, e.g., approximately 0.375 ml/min. The infusion will cause all mice to experience seizures, followed by death. Those mice that enter the seizure stage the soonest are believed to be more prone to seizures.
To screen for phenotypes involving changes in seizure susceptibility, the Metrazol Test was used. A 5 mg/mL solution of Metrazol was infused through the tail vein of the mouse at a constant rate of 0.375 mL/min. The infusion causes all mice to experience seizures. Those mice who enter the seizure stage the quickest are thought to be more prone to seizures in general.
To screen for phenotypes involving epilepsy, the Metrazol was used. Seven to ten adult wild-type and homozygote males were used. A fresh solution of 5 mg/ml pentylenetetrazole in 0.9% NaCl was prepared prior to testing. Mice were weighed and loosely held in a restrainer. After exposure to a heat lamp to dilate the tail vein, mice were continuously infused with the pentylenetetrazole solution using a syringe pump set at a constant flow rate. The following stages were recorded: first twitch (sometimes accompanied by a squeak), beginning of the tonic/clonic seizure, tonic extension and survival time. The dose required for each phase is determined and the latency to each phase was determined between genotypes. Alterations in any stage may indicate an overall imbalance in excitatory or inhibitory neurotransmitter levels. When compared to age- and gender-matched wild-type (+/+) control mice, homozygous mutant (−/−) mice required a lower dose of metrazol to induce a tonic/clonic seizure (FIG. 5 and Table 1), indicating an increased susceptibility to seizure.

[1] = GRIK5 homozygous mutant (−/−) F2N1 male mice

SMILES: C1CCc2nnnn2CC1 [Metrazol, pentylenetetrazole]
- dose at death, Average ± Stdev [1]: 136.12 ± 27.18 mg/kg
- dose at first twitch, Average ± Stdev [1]: 26.38 ± 2.59 mg/kg
- dose at tonic extension, Average ± Stdev [1]: 115.34 ± 28.63 mg/kg
- dose at tonic/clonic seizure, Average ± Stdev [1]: 34.02 ± 6.24 mg/kg
- dose of metrazol to induce a tonic/clonic seizure, in words (homozygous mutant (−/−) mice compared to age- and gender-matched wild-type (+/+) control mice): lower dose
- dose at death, Average ± Stdev (wild-type (+/+) F2N1 male mice): 134.29 ± 31.19 mg/kg
- dose at first twitch, Average ± Stdev (wild-type (+/+) F2N1 male mice): 29.73 ± 3.85 mg/kg
- dose at tonic extension, Average ± Stdev (wild-type (+/+) F2N1 male mice): 112.07 ± 29.70 mg/kg
- dose at tonic/clonic seizure, Average ± Stdev (wild-type (+/+) F2N1 male mice): 44.59 ± 9.74 mg/kg

Reference: US20060265770A1, “Transgenic mice containing glutamate receptor (GRIK5) gene disruptions” (priority 2000, published 2006)
